{
  "source": "patent US11660287B2",
  "about": "“Agent for preventing or treating spinocerebellar ataxia” (FUJIFILM Toyama Chemical Co., Ltd., priority 2017, dated 2023)",
  "tested_on": "Mild to Moderate AD Patients",
  "test": "Phase II placebo-controlled trial: change in brain volume by volumetric MRI (vMRI) at week 52",
  "format": "in vivo, human",
  "settings": "for Change in hippocampus volume, least square means (standard error) / Change in whole brain volume, least square means (standard error): mixed-effect model",
  "description": "Test Example 1 Multicenter Randomized Double-Blind Phase II Placebo-Controlled Trial for Assessing Effectiveness and Safety of Compound A in Mild to Moderate AD Patients\nSubject (selection criteria): Patients were screened in a period from 42 days before treatment assignment to the assignment based on the following selection criteria.\n• Patients who were probable AD and are 55 years old or older and 85 years old or younger at the time of obtaining consent of screening. • Patients with an MMSE score of 12 to 22 at the time of screening • Patients with a Modified Hachinski Ischemia Scale score of 4 or less • Patients who have been treated with a donepezil hydrochloride or rivastigmine transdermal system for at least 4 months before the baseline and with a stable dose thereof for 3 months before the baseline. • In the case of patients who have received memantine in addition to being treated with a donepezil hydrochloride or rivastigmine transdermal system, patients who have been treated with memantine for at least 4 months before the baseline and with a stable dose thereof for 3 months before the baseline. • Patients whose brain MRI or CT results match AD at the time of screening Organization of groups: Patients matched (484 patients) were randomly divided into the following 3 groups and the trial was started. (1) High dose group: 224 mg of a test compound (160 mg in terms of Compound A) was orally administered once a day for 4 weeks and then 448 mg of a test compound (320 mg in terms of Compound A) was orally administered once a day for 48 weeks (158 patients) (2) Low dose group: 224 mg of a test compound (160 mg in terms of Compound A) was orally administered once a day for 52 weeks (166 patients) (3) Placebo group: placebo was orally administered once a day for 52 weeks (158 patients) Method of Assessment: Volumetric MRI\nBrain volume of subjects was measured by vMRI scan at the screening and after 52 weeks, and the volume change of the whole brain and the hippocampus of the subjects were quantified to assess brain atrophy based on the change from the screening.\nFurthermore, volume change of the whole brain and 101 areas (obtained by dividing the areas existing in both the left brain and the right brain of the Brodmann areas (1 to 52) into 101 areas) in each subject was quantified to assess brain atrophy based on the change from the screening.\nChanges in the volume of the whole brain and the hippocampus after 52 weeks from the baseline were compared between the high dose group and the placebo group, and between the low dose group and the placebo group based on Mixed-effect Models. For models, the treatment groups were included as a fixed effect, age, baseline of the respective brain volumes (the whole brain or the hippocampus), baseline of MMSE and ApoE4 genotype (positive/negative) were included as covariates, and trial sites were included as a random effect.\nFurthermore, changes in the respective volumes of the whole brain and the 101 areas after 52 weeks from the baseline were compared between the high dose group and the placebo group, and between the low dose group and the placebo group.",
  "key": {"[1]": {"settings": "High dose group (160 mg for 4 weeks, then 320 mg in terms of Compound A, oral once a day, for 48 weeks), week 52 vs baseline, vMRI"}, "[2]": {"settings": "Low dose group (160 mg in terms of Compound A, oral once a day, 52 weeks), week 52 vs baseline, vMRI"}},
  "data": [
    {"smiles": "OC1CN(CCCOCCc2ccc3sccc3c2)C1", "note": "[Compound A, 1-(3-(2-(1-benzothiophen-5-yl)ethoxy)propyl)azetidin-3-ol]", "values": [
      {"measurement": "Change in the volume of the whole brain and the hippocampus compared with placebo group (in words)", "setting": "Compound A group vs placebo group, week 52 from baseline", "value": "volume reduction tended to be smaller"},
      {"measurement": "Volume reduction of the cerebellum compared to the placebo group (in words)", "setting": "Compound A high dose group", "value": "same tendency as in the low dose group was observed"},
      {"measurement": "Difference in effects on the change in hippocampal volume vs placebo group (in words)", "setting": "Compound A low dose group vs placebo group, week 52", "value": "statistically significant"},
      {"measurement": "Volume reduction of the cerebellum compared to the placebo group (in words)", "setting": "Compound A low dose group, whole brain and 101 areas, Nos. 1, 2, 4 and 8 in Table 2", "value": "particularly tended to be suppressed"},
      {"measurement": "Change in hippocampus volume, least square means (standard error)", "setting": "[1]", "value": "−0.31(0.057) mL"},
      {"measurement": "Change in whole brain volume, least square means (standard error)", "setting": "[1]", "value": "−20.05(3.821) mL"},
      {"measurement": "Change in hippocampus volume, difference from placebo group (95% confidence interval)", "setting": "High dose group, week 52 vs baseline, p-value 0.0996", "value": "0.08(−0.02, 0.18) mL"},
      {"measurement": "Change in whole brain volume, difference from placebo group (95% confidence interval)", "setting": "High dose group, week 52 vs baseline, p-value 0.2581", "value": "3.94(−2.91, 10.79) mL"},
      {"measurement": "Change in hippocampus volume, least square means (standard error)", "setting": "[2]", "value": "−0.27(0.053) mL"},
      {"measurement": "Change in whole brain volume, least square means (standard error)", "setting": "[2]", "value": "−21.37(3.582) mL"},
      {"measurement": "Change in hippocampus volume, difference from placebo group (95% confidence interval)", "setting": "Low dose group, week 52 vs baseline, p-value 0.0106", "value": "0.12(0.03, 0.22) mL"},
      {"measurement": "Change in whole brain volume, difference from placebo group (95% confidence interval)", "setting": "Low dose group, week 52 vs baseline, p-value 0.4456", "value": "2.63(−4.15, 9.40) mL"},
      {"measurement": "Change in brain volume, mean value: ctx-lh-parsorbitalis", "setting": "Low dose group, week 52 vs baseline, vMRI, placebo −0.5499, p 0.0323", "value": 0.1244},
      {"measurement": "Change in brain volume, mean value: Left-Cerebellum-Cortex", "setting": "Low dose group, week 52 vs baseline, vMRI, placebo −0.6899, p 0.0005", "value": "−0.2695"},
      {"measurement": "Change in brain volume, mean value: Right-Cerebellum-Cortex", "setting": "Low dose group, week 52 vs baseline, vMRI, placebo −0.7248, p 0.0090", "value": "−0.3209"},
      {"measurement": "Change in brain volume, mean value: Right-Cerebral-White-Matte", "setting": "Low dose group, week 52 vs baseline, vMRI, placebo −1.4416, p 0.0157", "value": "−1.0753"},
      {"measurement": "Change in brain volume, mean value: ctx-rh-lateral orbitofrontal", "setting": "Low dose group, week 52 vs baseline, vMRI, placebo −1.5322, p 0.0146", "value": "−0.8995"},
      {"measurement": "Change in brain volume, mean value: Left-Cerebral-White-Matter", "setting": "Low dose group, week 52 vs baseline, vMRI, placebo −1.5679, p 0.0215", "value": "−1.2418"},
      {"measurement": "Change in brain volume, mean value: Whole_brain", "setting": "Low dose group, week 52 vs baseline, vMRI, placebo −1.5952, p 0.0054", "value": "−1.3142"},
      {"measurement": "Change in brain volume, mean value: Right-Cerebellum-White-Matter", "setting": "Low dose group, week 52 vs baseline, vMRI, placebo −1.6919, p 0.0014", "value": "−0.89"},
      {"measurement": "Change in brain volume, mean value: Left-Cerebellum-White-Matter", "setting": "Low dose group, week 52 vs baseline, vMRI, placebo −2.0490, p 0.0001", "value": "−0.9201"},
      {"measurement": "Change in brain volume, mean value: ctx-lh-insula", "setting": "Low dose group, week 52 vs baseline, vMRI, placebo −2.6470, p 0.0030", "value": "−1.9609"},
      {"measurement": "Change in brain volume, mean value: ctx-rh-insula", "setting": "Low dose group, week 52 vs baseline, vMRI, placebo −2.6510, p 0.0056", "value": "−1.9976"},
      {"measurement": "Change in brain volume, mean value: ctx-rh-superior temporal", "setting": "Low dose group, week 52 vs baseline, vMRI, placebo −2.9861, p 0.0013", "value": "−2.1332"},
      {"measurement": "Change in brain volume, mean value: Left-Hippocampus", "setting": "Low dose group, week 52 vs baseline, vMRI, placebo −3.0880, p 0.0232", "value": "−2.3402"},
      {"measurement": "Change in brain volume, mean value: ctx-rh-inferior temporal", "setting": "Low dose group, week 52 vs baseline, vMRI, placebo −3.2601, p 0.0124", "value": "−2.6157"},
      {"measurement": "Change in brain volume, mean value: ctx-lh-entorhinal", "setting": "Low dose group, week 52 vs baseline, vMRI, placebo −3.8173, p 0.0195", "value": "−2.97"}
    ]}
  ]
}
